Source: the NIST ThermoML archive (doi:10.1016/j.jct.2013.03.005)
Values joined by “and” are separate entries in the source; they are usually repeats but may differ in a detail not shown here. Equal values may be shown once. ± gives the expanded uncertainty stated by the source.

Assays:
[1] = for mass density: 298.15 K, 101.33 kPa, mass/volume ratio of a pellet; for Normal melting temperature: DTA
[2] = Molar enthalpy of transition or fusion; conditions: Crystal; DSC
[3] = molar enthalpy of vaporization or sublimation; conditions: 298.15 K; Crystal; Static calorimetry

OCC1c2ccccc2-c2ccccc21 [9-fluorenemethanol]
[1], Crystal
Conditions | Normal melting temperature [°C] | mass density [kg/m3]
– | 103.92 ± 0.41 | 1084 ± 110

[1]
Conditions | vapor or sublimation pressure
337.18 K, Crystal, Calculated from knudsen effusion weight loss | 9.2e-05 ± 2e-05 kPa and 9e-05 ± 2e-05 kPa
339.17 K, Crystal, Calculated from knudsen effusion weight loss | 0.000119 ± 2e-05 kPa and 0.000117 ± 2e-05 kPa and 0.000115 ± 2e-05 kPa
341.1 K, Crystal, Calculated from knudsen effusion weight loss | 0.00015 ± 2.1e-05 kPa and 0.000147 ± 2.1e-05 kPa
343.17 K, Crystal, Calculated from knudsen effusion weight loss | 0.00019 ± 2.1e-05 kPa and 0.000187 ± 2.1e-05 kPa and 0.000197 ± 2.1e-05 kPa
345.21 K, Crystal, Calculated from knudsen effusion weight loss | 0.000247 ± 2.2e-05 kPa and 0.000239 ± 2.2e-05 kPa and 0.000243 ± 2.2e-05 kPa
347.13 K, Crystal, Calculated from knudsen effusion weight loss | 0.000306 ± 2.3e-05 kPa and 0.000303 ± 2.3e-05 kPa and 0.000302 ± 2.3e-05 kPa
349.16 K, Crystal, Calculated from knudsen effusion weight loss | 0.00038 ± 2.4e-05 kPa and 0.000381 ± 2.4e-05 kPa and 0.00039 ± 2.4e-05 kPa
351.22 K, Crystal, Calculated from knudsen effusion weight loss | 0.000493 ± 2.7e-05 kPa and 0.000476 ± 2.6e-05 kPa and 0.000488 ± 2.6e-05 kPa
353.14 K, Crystal, Calculated from knudsen effusion weight loss | 0.000611 ± 2.9e-05 kPa and 0.000602 ± 2.9e-05 kPa and 0.000607 ± 2.9e-05 kPa
355.17 K, Crystal, Calculated from knudsen effusion weight loss | 0.000748 ± 3.3e-05 kPa and 0.000739 ± 3.3e-05 kPa and 0.000772 ± 3.4e-05 kPa
357.16 K, Crystal, Calculated from knudsen effusion weight loss | 0.00095 ± 3.9e-05 kPa and 0.000955 ± 3.9e-05 kPa and 0.000923 ± 3.8e-05 kPa
359.1 K, Crystal, Calculated from knudsen effusion weight loss | 0.00118 ± 9.5e-05 kPa and 0.001184 ± 9.5e-05 kPa and 0.001169 ± 9.4e-05 kPa
362.69 K, Liquid, Closed cell (Static) method | 0.00242 ± 0.00016 kPa
364.67 K, Liquid, Closed cell (Static) method | 0.00285 ± 0.00017 kPa
366.66 K, Liquid, Closed cell (Static) method | 0.00333 ± 0.00018 kPa
368.63 K, Liquid, Closed cell (Static) method | 0.00391 ± 0.0002 kPa
370.62 K, Liquid, Closed cell (Static) method | 0.00456 ± 0.00022 kPa
372.6 K, Liquid, Closed cell (Static) method | 0.00529 ± 0.00024 kPa
374.57 K, Liquid, Closed cell (Static) method | 0.00615 ± 0.00027 kPa
376.56 K, Liquid, Closed cell (Static) method | 0.00711 ± 0.00031 kPa
378.53 K, Liquid, Closed cell (Static) method | 0.00817 ± 0.00034 kPa
380.52 K, Liquid, Closed cell (Static) method | 0.00947 ± 0.00039 kPa
382.5 K, Liquid, Closed cell (Static) method | 0.01089 ± 0.00044 kPa
384.49 K, Liquid, Closed cell (Static) method | 0.01253 ± 0.00051 kPa
386.47 K, Liquid, Closed cell (Static) method | 0.0143 ± 0.00054 kPa
388.43 K, Liquid, Closed cell (Static) method | 0.01639 ± 0.00057 kPa
390.43 K, Liquid, Closed cell (Static) method | 0.0188 ± 0.00061 kPa
392.39 K, Liquid, Closed cell (Static) method | 0.02137 ± 0.00065 kPa
394.37 K, Liquid, Closed cell (Static) method | 0.02432 ± 0.00069 kPa
396.35 K, Liquid, Closed cell (Static) method | 0.02764 ± 0.00074 kPa
398.32 K, Liquid, Closed cell (Static) method | 0.03131 ± 0.0008 kPa
400.3 K, Liquid, Closed cell (Static) method | 0.03556 ± 0.00086 kPa

Conditions | Molar enthalpy of transition or fusion [kcal/mol]
[2] | 6.67 ± 0.148

O=C(O)C1c2ccccc2-c2ccccc21 [9H-fluorene-9-carboxylic acid]
[1], Crystal
Conditions | Normal melting temperature [°C] | mass density [kg/m3]
– | 230.68 ± 0.56 | 1164 ± 120

[1], Crystal, Calculated from knudsen effusion weight loss
Conditions | vapor or sublimation pressure [kPa]
384.16 K | 0.000139 ± 2.1e-05
386.13 K | 0.000171 ± 2.1e-05
388.15 K | 0.000211 ± 2.1e-05
392.14 K | 0.000307 ± 2.3e-05
394.15 K | 0.000378 ± 2.4e-05
396.15 K | 0.000474 ± 2.6e-05
398.15 K | 0.000558 ± 2.8e-05
400.13 K | 0.000689 ± 3.2e-05
402.14 K | 0.000811 ± 3.5e-05
404.15 K | 0.000994 ± 4e-05
406.16 K | 0.001182 ± 9.5e-05

Conditions | Molar enthalpy of transition or fusion [kcal/mol] | molar enthalpy [kcal/mol]
[2] | 7.23 ± 0.174 | –
[3] | – | 30.4 ± 0.502
